# According to US9738634B2, “Heterocyclic amide compound and herbicide” (SYNGENTA PARTICIPATIONS AG, priority 2013, dated 2017):
# Columns and labels:
# Format in all cases: in vivo
# common wind-grass = test: Test Example 3: weedkilling efficacy through soil treatment; J: common wind-grass; settings: soil treatment, treatment dosage 80 g/ha
# Excerpt: (§1) Weedkilling Efficacy Test Through Soil Treatment
# (§2) Sterilized diluvial soil was introduced into 21 cm long, 13 cm wide, 7 cm deep plastic boxes, and seeds of crabgrass, green foxtail, barnyard grass, wild oat, black-grass, Italian ryegrass, common wind-grass, Indian mallow, redroot pigweed, fig-leafed goosefoot, chickweed, catchweed, birds-eye speedwell, corn, soybean, rice, wheat, beet and rapeseed were each spot-sown, and covered with about 1.5 cm of soil. Next, emulsions of compounds of the present invention prepared according to compounding example 2 were diluted with water to give the specified dosages, and applied uniformly onto the soil surface with a small sprayer. The plants were grown by placing the plastic boxes in a greenhouse at 25 to 30° C., and 3 weeks after the pesticide treatment the effect on each type of plant was investigated on the basis of the assessment criteria of test example 1.
# (§3) A: barnyard grass, B: bulrush, C: oval-leafed pondweed, D: crabgrass, E: green foxtail, F: barnyard grass, G: wild oat, H: black-grass, I: Italian ryegrass, J: common wind-grass, K: Indian mallow, L: redroot pigweed, M: fig-leafed goosefoot, N: chickweed, O: catchweed, p: birds-eye speedwell, a: transplanted rice, b: directly sown rice, c: corn, d: soybean, e: wheat, f: beet, g: rapeseed
# (§4) Further, pesticide dosage (g/ha) indicates the concentration regulated such that treatment was with only the stated number of grams (g), when calculated per hectare (ha).
# Italian ryegrass = test: Test Example 3: weedkilling efficacy through soil treatment; I: Italian ryegrass; settings: soil treatment
# Method in brief: (§5)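 Crop and weed responses were judged three weeks after a uniform surface spray of the water-diluted emulsion at the given g/ha rate. Seeds sat beneath about 1.5 cm of sterilized diluvial soil, and boxes stood in a greenhouse at 25 to 30° C.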
# black-grass = test: Test Example 3: weedkilling efficacy through soil treatment; H: black-grass; settings: soil treatment
# Method in brief: as §5
# wheat = test: Test Example 3: soil treatment, effect on crop; e: wheat; settings: soil treatment
# Method in brief: as §5
# rapeseed = test: Test Example 3: soil treatment, effect on crop; g: rapeseed; settings: soil treatment, treatment dosage 80 g/ha
# Excerpt: as §1, §2, §3, §4
# beet = test: Test Example 3: soil treatment, effect on crop; f: beet; settings: soil treatment, treatment dosage 315 g/ha
# Method in brief: as §5
# catchweed = test: Test Example 3: weedkilling efficacy through soil treatment; O: catchweed; settings: soil treatment, treatment dosage 315 g/ha
# Excerpt: as §1, §2, §3, §4
# directly sown rice = test: Test Example 3: soil treatment, effect on crop; b: directly sown rice; settings: soil treatment, treatment dosage 315 g/ha
# Method in brief: as §5
# barnyard grass [1] = test: Test Example 2: weedkilling efficacy, growth period weed treatment in the submerged state; A: barnyard grass; settings: treatment dosage 252 g/ha
# Method in brief: (§6)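 First, alluvial soil in pots is flooded to 4 cm and mixed seed is sown. Next, plants grow in a greenhouse at 25 to 30° C until the 1-2 leaf stage. Then diluted emulsion is applied onto the water surface at the given g/ha rate, and injury is assessed after 3 weeks.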
# oval-leafed pondweed [2] = test: Test Example 2: weedkilling efficacy, growth period weed treatment in the submerged state; C: oval-leafed pondweed; settings: treatment dosage 252 g/ha
# Method in brief: as §6
# birds-eye speedwell = test: Test Example 3: weedkilling efficacy through soil treatment; p: birds-eye speedwell; settings: soil treatment, treatment dosage 315 g/ha
# Method in brief: as §5
# crabgrass = test: Test Example 3: weedkilling efficacy through soil treatment; D: crabgrass; settings: soil treatment, treatment dosage 315 g/ha
# Method in brief: as §5
# bulrush [3] = test: Test Example 1: weedkilling efficacy, preemergent weed treatment in the submerged state; B: bulrush; settings: treatment dosage 252 g/ha
# Method in brief: (§7)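 Alluvial soil in Wagner pots flooded to 4 cm; barnyard grass, bulrush and oval-leafed pondweed seeds sown, then 2.5-leaf rice seedlings transplanted. Same day, emulsified compound diluted in water to set g/ha dosages and applied to water surface; greenhouse 25–30 °C, effect scored by criteria after 3 weeks.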
# soybean = test: Test Example 3: soil treatment, effect on crop; d: soybean; settings: soil treatment, treatment dosage 315 g/ha
# Method in brief: as §5
# chickweed = test: Test Example 3: weedkilling efficacy through soil treatment; N: chickweed; settings: soil treatment, treatment dosage 315 g/ha
# Method in brief: as §5
# corn = test: Test Example 3: soil treatment, effect on crop; c: corn; settings: soil treatment, treatment dosage 315 g/ha
# Method in brief: as §5
# redroot pigweed = test: Test Example 3: weedkilling efficacy through soil treatment; L: redroot pigweed; settings: soil treatment, treatment dosage 315 g/ha
# Method in brief: as §5
# oval-leafed pondweed [4] = test: Test Example 1: weedkilling efficacy, preemergent weed treatment in the submerged state; C: oval-leafed pondweed; settings: treatment dosage 252 g/ha
# Method in brief: as §7
# green foxtail = test: Test Example 3: weedkilling efficacy through soil treatment; E: green foxtail; settings: soil treatment, treatment dosage 315 g/ha
# Method in brief: as §5
# bulrush [5] = test: Test Example 2: weedkilling efficacy, growth period weed treatment in the submerged state; B: bulrush; settings: treatment dosage 252 g/ha
# Method in brief: as §6
# wild oat = test: Test Example 3: weedkilling efficacy through soil treatment; G: wild oat; settings: soil treatment, treatment dosage 315 g/ha
# Method in brief: as §5
# transplanted rice = test: Test Example 1: preemergent weed treatment in the submerged state, effect on crop; a: transplanted rice; settings: treatment dosage 252 g/ha
# Method in brief: as §7
# fig-leafed goosefoot = test: Test Example 3: weedkilling efficacy through soil treatment; M: fig-leafed goosefoot; settings: soil treatment, treatment dosage 315 g/ha
# Method in brief: as §5
# barnyard grass [6] = test: Test Example 1: weedkilling efficacy, preemergent weed treatment in the submerged state; A: barnyard grass; settings: treatment dosage 252 g/ha
# Method in brief: as §7
# Indian mallow = test: Test Example 3: weedkilling efficacy through soil treatment; K: Indian mallow; settings: soil treatment, treatment dosage 315 g/ha
# Method in brief: as §5
smiles,measurement,setting,value
CC(C)(C(=O)Nc1cc(Cl)nc(Cl)n1)N1COCN(c2ccccc2)C1=O [A-1-21],"J: common wind-grass, weedkilling efficacy grade",common wind-grass,"5 (weed kill ratio 90% or more, (practically complete withering))"
same,"I: Italian ryegrass, weedkilling efficacy grade",Italian ryegrass; treatment dosage 80 g/ha,"4 (weed kill ratio 70% or more, less than 90%)"
same,"H: black-grass, weedkilling efficacy grade",black-grass; treatment dosage 80 g/ha,"4 (weed kill ratio 70% or more, less than 90%)"
same,"e: wheat, effect on crop grade",wheat; treatment dosage 80 g/ha,0 (weed kill ratio 5% or less (practically no effect))
same,"g: rapeseed, effect on crop grade",rapeseed,0 (weed kill ratio 5% or less (practically no effect))
CC(C)(C(=O)Nc1cc(Br)ccn1)N1COCN(c2ccccc2)C1=O [A-2-08],"J: common wind-grass, weedkilling efficacy grade",common wind-grass,"5 (weed kill ratio 90% or more, (practically complete withering))"
same,"I: Italian ryegrass, weedkilling efficacy grade",Italian ryegrass; treatment dosage 80 g/ha,"5 (weed kill ratio 90% or more, (practically complete withering))"
same,"H: black-grass, weedkilling efficacy grade",black-grass; treatment dosage 80 g/ha,"5 (weed kill ratio 90% or more, (practically complete withering))"
same,"e: wheat, effect on crop grade",wheat; treatment dosage 80 g/ha,0 (weed kill ratio 5% or less (practically no effect))
same,"g: rapeseed, effect on crop grade",rapeseed,0 (weed kill ratio 5% or less (practically no effect))
Cc1ccnc(NC(=O)C(C)(C)N2COCN(c3ccccc3)C2=O)c1 [A-2-37],"f: beet, effect on crop grade",beet,0 (weed kill ratio 5% or less (practically no effect))
same,"O: catchweed, weedkilling efficacy grade",catchweed,0 (weed kill ratio 5% or less (practically no effect))
same,"b: directly sown rice, effect on crop grade",directly sown rice,"2 (weed kill ratio 20% or more, less than 40%)"
same,A (barnyard grass) weedkilling efficacy grade,barnyard grass [1],"5 (weed kill ratio 90% or more, (practically complete withering))"
same,C (oval-leafed pondweed) weedkilling efficacy grade,oval-leafed pondweed [2],"3 (weed kill ratio 40% or more, less than 70%)"
same,"P: birds-eye speedwell, weedkilling efficacy grade",birds-eye speedwell,"5 (weed kill ratio 90% or more, (practically complete withering))"
same,"D: crabgrass, weedkilling efficacy grade",crabgrass,"5 (weed kill ratio 90% or more, (practically complete withering))"
same,"B: bulrush, weed kill grade",bulrush [3],"5 (weed kill ratio 90% or more, (practically complete withering))"
same,"d: soybean, effect on crop grade",soybean,0 (weed kill ratio 5% or less (practically no effect))
same,"N: chickweed, weedkilling efficacy grade",chickweed,"1 (weed kill ratio 5% or more, less than 20%)"
same,"c: corn, effect on crop grade",corn,"1 (weed kill ratio 5% or more, less than 20%)"
same,"L: redroot pigweed, weedkilling efficacy grade",redroot pigweed,"1 (weed kill ratio 5% or more, less than 20%)"
same,"C: oval-leafed pondweed, weed kill grade",oval-leafed pondweed [4],"5 (weed kill ratio 90% or more, (practically complete withering))"
same,"I: Italian ryegrass, weedkilling efficacy grade",Italian ryegrass; treatment dosage 315 g/ha,"5 (weed kill ratio 90% or more, (practically complete withering))"
same,"E: green foxtail, weedkilling efficacy grade",green foxtail,"4 (weed kill ratio 70% or more, less than 90%)"
same,B (bulrush) weedkilling efficacy grade,bulrush [5],"5 (weed kill ratio 90% or more, (practically complete withering))"
same,"G: wild oat, weedkilling efficacy grade",wild oat,"3 (weed kill ratio 40% or more, less than 70%)"
same,"H: black-grass, weedkilling efficacy grade",black-grass; treatment dosage 315 g/ha,"3 (weed kill ratio 40% or more, less than 70%)"
same,"e: wheat, effect on crop grade",wheat; treatment dosage 315 g/ha,0 (weed kill ratio 5% or less (practically no effect))
same,"a: transplanted rice, effect on crop grade",transplanted rice,0 (weed kill ratio 5% or less (practically no effect))
same,"M: fig-leafed goosefoot, weedkilling efficacy grade",fig-leafed goosefoot,"3 (weed kill ratio 40% or more, less than 70%)"
same,"A: barnyard grass, weed kill grade",barnyard grass [6],"5 (weed kill ratio 90% or more, (practically complete withering))"
same,"K: Indian mallow, weedkilling efficacy grade",Indian mallow,0 (weed kill ratio 5% or less (practically no effect))
CC(C)(C(=O)Nc1nc(C(F)(F)F)cs1)N1COCN(c2ccccc2)C1=O [A-1-06],"J: common wind-grass, weedkilling efficacy grade",common wind-grass,"5 (weed kill ratio 90% or more, (practically complete withering))"
same,"I: Italian ryegrass, weedkilling efficacy grade",Italian ryegrass; treatment dosage 80 g/ha,"5 (weed kill ratio 90% or more, (practically complete withering))"
same,"H: black-grass, weedkilling efficacy grade",black-grass; treatment dosage 80 g/ha,"5 (weed kill ratio 90% or more, (practically complete withering))"
same,"g: rapeseed, effect on crop grade",rapeseed,"4 (weed kill ratio 70% or more, less than 90%)"
CC(C)(C(=O)Nc1ccnc(Cl)n1)N1COCN(c2ccccc2)C1=O [A-1-20],"J: common wind-grass, weedkilling efficacy grade",common wind-grass,"5 (weed kill ratio 90% or more, (practically complete withering))"
same,"I: Italian ryegrass, weedkilling efficacy grade",Italian ryegrass; treatment dosage 80 g/ha,"5 (weed kill ratio 90% or more, (practically complete withering))"
same,"H: black-grass, weedkilling efficacy grade",black-grass; treatment dosage 80 g/ha,"5 (weed kill ratio 90% or more, (practically complete withering))"
same,"e: wheat, effect on crop grade",wheat; treatment dosage 80 g/ha,"1 (weed kill ratio 5% or more, less than 20%)"
same,"g: rapeseed, effect on crop grade",rapeseed,"1 (weed kill ratio 5% or more, less than 20%)"
CC(C)(C(=O)Nc1cc(C(F)F)cc(Cl)n1)N1COCN(c2ccccc2)C1=O [A-2-27],"J: common wind-grass, weedkilling efficacy grade",common wind-grass,"5 (weed kill ratio 90% or more, (practically complete withering))"
same,"I: Italian ryegrass, weedkilling efficacy grade",Italian ryegrass; treatment dosage 80 g/ha,"5 (weed kill ratio 90% or more, (practically complete withering))"
same,"H: black-grass, weedkilling efficacy grade",black-grass; treatment dosage 80 g/ha,"5 (weed kill ratio 90% or more, (practically complete withering))"
same,"e: wheat, effect on crop grade",wheat; treatment dosage 80 g/ha,"1 (weed kill ratio 5% or more, less than 20%)"
same,"g: rapeseed, effect on crop grade",rapeseed,"2 (weed kill ratio 20% or more, less than 40%)"
